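The compound was tested at five concentrations on cells cultured in 96-well plates, with a 48-hour exposure period. Here, GI50 denotes the concentration required for 50% inhibition of growth.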 Calls of active or inactive are those of the source. Rule as the data show it: active = GI50 up to about 1.1 µM and inactive = higher.

The source of these data is ChEMBL document CHEMBL1201862, “PubChem BioAssay data set” (2004).

Experiment in all cases: NCI tumour cell line growth inhibition, 48 h
Experiment [1] deals with NCI-H226.
For experiment [2], the system named is SK-MEL-28.
The test system of experiment [3] is CAKI-1.
Experiment [4] deals with SNB-19.
The subject of experiment [5] is HL-60.
Experiment [6] concerns MOLT-4.
For experiment [7], the system named is OVCAR-3.
The test system of experiment [8] is LOX IMVI.
For experiment [9], the system named is UO-31.
The subject of experiment [10] is A498.
Experiment [11] deals with MDA-MB-231.
Experiment [12] relates to NCI/ADR-RES.
Experiment [13] deals with T47D.
Experiment [14] concerns TK-10.
Experiment [15] deals with MCF7.
Experiment [16] deals with HT-29.
In experiment [17] the test system is EKVX.
The test system of experiment [18] is Malme-3M.
Experiment [19] relates to MDA-MB-435.
In experiment [20] the test system is OVCAR-5.

As to `c1cc(-c2ncc(-c3ccc4c(c3)CCCO4)o2)ccn1`, the GI50 in experiment [1] was 21 µM (inactive); in experiment [2] it was 11.6 µM (inactive); in experiment [3], 20 µM (inactive); in [4], 8.79 µM (inactive); in experiment [5] it was 2.42 µM (inactive); in experiment [6], 3.06 µM (inactive). Further, the GI50 in experiment [7] was 11.4 µM (inactive); in experiment [8] it was 8.41 µM (inactive); in [9], 23.2 µM (inactive); in experiment [10] it was 10.6 µM (inactive); in experiment [11], 17.7 µM (inactive); in experiment [12], 3.94 µM (inactive). The GI50 in experiment [13] is 12.5 µM (inactive); in [14] it was 7.43 µM (inactive); in [15] it was 12.8 µM (inactive); in experiment [16], 7.4 µM (inactive); in experiment [17] it was 18.6 µM (inactive); in experiment [18], 10.4 µM (inactive). The GI50 was 2.36 µM (inactive) in experiment [19] and 42.2 µM (inactive) in [20].
With `CC(=O)c1ccc2c(c1)CC1(C2)Cc2ccccc2C1=O` (stereo not given), the GI50 in experiment [1] is 85.3 µM (inactive); in [2], 64.3 µM (inactive); in [3], 33.1 µM (inactive); in [4], > 100 µM (inactive); in experiment [5], 25.1 µM (inactive); in experiment [6] it was 29.6 µM (inactive). In addition, the GI50 in experiment [7] was 50.9 µM (inactive); in experiment [8], 36.1 µM (inactive); in [9] it was 42.4 µM (inactive); in experiment [10] it was > 100 µM (inactive); in experiment [11] it was 57.3 µM (inactive); in experiment [12], 16 µM (inactive). Moreover, the GI50 was 25.6 µM (inactive) in [13]; 19.4 µM (inactive) in experiment [14]; 26.7 µM (inactive) in experiment [15]; 14.6 µM (inactive) in experiment [16]; 24.2 µM (inactive) in [17]; 28.4 µM (inactive) in [18]. Moreover, the GI50 is 34.2 µM (inactive) in experiment [19] and > 100 µM (inactive) in [20].
For `COc1ccc2o/c(=N\c3ccc(F)cc3)c(C(N)=O)cc2c1`, the GI50 in experiment [1] was 36.6 µM (inactive); in [2] it was > 100 µM (inactive); in experiment [3] it was 45.6 µM (inactive); in [4], 38.5 µM (inactive); in experiment [5], > 100 µM (inactive); in experiment [6] it was > 100 µM (inactive). The GI50 in experiment [7] is 49.9 µM (inactive); in [8] it was > 100 µM (inactive); in [9], 46.8 µM (inactive); in experiment [10], 20 µM (inactive); in [11], 16.3 µM (inactive); in experiment [12], 30.2 µM (inactive). Also, the GI50 in experiment [13] is 19.4 µM (inactive); in experiment [14], 21.6 µM (inactive); in [15], 56.8 µM (inactive); in experiment [16] it was > 100 µM (inactive); in [17], > 100 µM (inactive); in experiment [18] it was 47.1 µM (inactive). Further, the GI50 in experiment [19] and in experiment [20] was > 100 µM (inactive) throughout.
On to `CC1=CCC[C@]2(C)C1=CC(=O)O[C@H]2c1ccoc1`, for which the GI50 in experiment [1] was > 100 µM (inactive); in experiment [2], > 100 µM (inactive); in [3], > 100 µM (inactive); in experiment [4] it was 23.6 µM (inactive); in experiment [5], 49.8 µM (inactive); in experiment [6] it was > 100 µM (inactive). The GI50 in experiment [7] is > 100 µM (inactive); in experiment [8] it was > 100 µM (inactive); in experiment [9] it was 44.6 µM (inactive); in experiment [10] it was > 100 µM (inactive); in [11], > 100 µM (inactive); in experiment [12], > 100 µM (inactive). The GI50 in experiment [13], in experiment [14], in experiment [15], in experiment [16], in [17] and in experiment [18] was > 100 µM (inactive) throughout. The GI50 in experiment [19] and in [20] was > 100 µM (inactive) in each case.
On to `CC(C)(C)C1CCC2c3c([nH]c4ccccc34)C3C(=O)N(c4cccc(Cl)c4)C(=O)C3C2C1` (stereo not given), for which the GI50 in experiment [1] is 19 µM (inactive); in experiment [2], 14.2 µM (inactive); in experiment [3], 17.8 µM (inactive); in experiment [4] it was 33.5 µM (inactive); in [5] it was 3.01 µM (inactive); in experiment [6], 1.85 µM (inactive). Moreover, the GI50 is 15.1 µM (inactive) in [7]; 7.48 µM (inactive) in experiment [8]; 9.12 µM (inactive) in [9]; 22.6 µM (inactive) in experiment [10]; 14.2 µM (inactive) in [11]; 13.6 µM (inactive) in experiment [12]. Moreover, the GI50 in experiment [13] is 9.16 µM (inactive); in [14] it was 16.8 µM (inactive); in [15], 2.06 µM (inactive); in [16] it was 6.38 µM (inactive); in experiment [17], 11.5 µM (inactive); in [18], 16.6 µM (inactive). In addition, the GI50 is 10.5 µM (inactive) in experiment [19] and 13.5 µM (inactive) in [20].
Consider `CO[P@@]1(=O)O[C@@H](c2ccccc2)[C@H](O)[C@@]1(O)c1ccccc1`, for which the GI50 in experiment [1] is > 100 µM (inactive); in experiment [2], > 100 µM (inactive); in experiment [3], > 100 µM (inactive); in experiment [4] it was > 100 µM (inactive); in [5], > 100 µM (inactive); in [6] it was 22.8 µM (inactive). Also, the GI50 in experiment [7], in [8], in experiment [9], in experiment [10], in [11] and in experiment [12] was > 100 µM (inactive) throughout. Moreover, the GI50 in [13] is > 100 µM (inactive); in experiment [14], > 100 µM (inactive); in experiment [15] it was > 100 µM (inactive); in [16], 45.6 µM (inactive); in experiment [17], > 100 µM (inactive); in experiment [18], > 100 µM (inactive). In addition, the GI50 in [19] and in experiment [20] was > 100 µM (inactive) each time.
Take `CNC(=O)N(C1=NCC(C)S1)c1ccc(C)c(C)c1` (stereo not given): the GI50 was 4.6 µM (inactive) in experiment [1]; 8.49 µM (inactive) in experiment [2]; 2.7 µM (inactive) in [3]; 6.64 µM (inactive) in [4]; 1.17 µM (inactive) in experiment [5]; 4.81 µM (inactive) in experiment [6]. Further, the GI50 in experiment [7] is 2.4 µM (inactive); in experiment [8] it was 5.09 µM (inactive); in experiment [9], 8.26 µM (inactive); in [10], 2.99 µM (inactive); in experiment [11], 12.1 µM (inactive); in [12] it was 3.36 µM (inactive). In addition, the GI50 in experiment [13] is 7.33 µM (inactive); in experiment [14], 9.04 µM (inactive); in experiment [15] it was 2.77 µM (inactive); in [16], 2.52 µM (inactive); in experiment [17] it was 6.55 µM (inactive); in experiment [18], 4.15 µM (inactive). Moreover, the GI50 in experiment [19] is 0.706 µM (active); in [20], 15.6 µM (inactive).
Consider `CCOC(=O)c1ccc(C(=O)/C(C(=O)OC(C)(C)C)=C2\CCCN2C)n1C`, for which the GI50 was > 100 µM (inactive) in experiment [1]; > 100 µM (inactive) in experiment [2]; > 100 µM (inactive) in [3]; > 100 µM (inactive) in [4]; 27.4 µM (inactive) in experiment [5]; 33.8 µM (inactive) in [6]. Also, the GI50 is 37.8 µM (inactive) in [7]; 87.3 µM (inactive) in experiment [8]; 90.4 µM (inactive) in experiment [9]; 77.1 µM (inactive) in experiment [10]; 80 µM (inactive) in [11]; 34.6 µM (inactive) in experiment [12]. Besides, the GI50 in experiment [13] was 29.2 µM (inactive); in experiment [14] it was > 100 µM (inactive); in [15], 55.8 µM (inactive); in [16], 45.2 µM (inactive); in experiment [17], 33.4 µM (inactive); in experiment [18], > 100 µM (inactive). Moreover, the values for the GI50 in experiment [19] and in experiment [20] were 69.7 µM (inactive) and > 100 µM (inactive), respectively.
For `O=C(O)c1ccc2c(c1)Cc1cc([N+](=O)[O-])ccc1-2`, the GI50 is 52.1 µM (inactive) in experiment [1]; > 100 µM (inactive) in [2]; 71.4 µM (inactive) in [3]; > 100 µM (inactive) in [4]; > 100 µM (inactive) in experiment [5]; > 100 µM (inactive) in experiment [6]. In addition, the GI50 is > 100 µM (inactive) in [7]; > 100 µM (inactive) in experiment [8]; 93.1 µM (inactive) in [9]; 44 µM (inactive) in [10]; > 100 µM (inactive) in experiment [11]; > 100 µM (inactive) in experiment [12]. In addition, the GI50 in experiment [13] is > 100 µM (inactive); in experiment [14], 61 µM (inactive); in experiment [15], > 100 µM (inactive); in experiment [16] it was > 100 µM (inactive); in [17] it was > 100 µM (inactive); in experiment [18], > 100 µM (inactive). For the same compound, the GI50 in experiment [19] and in [20] was > 100 µM (inactive) each time.
Take `O=[N+]([O-])C(/C(Cl)=C(\Cl)Br)=C(/Cl)SCc1ccccc1`: the GI50 in [1] is 14.4 µM (inactive); in experiment [2] it was 2.31 µM (inactive); in experiment [3] it was 1.8 µM (inactive); in experiment [4], 17.8 µM (inactive); in experiment [5], 0.336 µM (active); in [6], 0.778 µM (active). The GI50 was 2.74 µM (inactive) in [7]; 1.86 µM (inactive) in experiment [8]; 2.52 µM (inactive) in experiment [9]; 8.04 µM (inactive) in [10]; 2.94 µM (inactive) in [11]; 2.77 µM (inactive) in experiment [12]. Besides, the GI50 in experiment [13] is 3.68 µM (inactive); in [14], 4.5 µM (inactive); in experiment [15], 2.95 µM (inactive); in experiment [16] it was 2.12 µM (inactive); in experiment [17], 6.67 µM (inactive); in experiment [18], 6.31 µM (inactive). Moreover, the results for the GI50 in experiment [19] and in [20] were 1.87 µM (inactive) and 12.5 µM (inactive), respectively.
